The values below come from patent US20130084257A1, “TRANSDERMAL ABSORPTION PROMOTER, AND EXTERNAL SKIN FORMULATION THEREOF” (TAKASAGO INTERNATIONAL CORPORATION, priority 2010, published 2013).

Read-outs that look alike come from different tables or passages of the source.

The conditions of data set [1]: hairless, mouse, 2 mass %, pH 7.4.
Method: (§1) A skin specimen extirpated from a hairless mouse was placed in a vertical diffusion cell, with the dermal horny layer side being in the donor side and the dermal basement membrane side being in the receiver side. 16 mL of a phosphate-buffered physiological saline solution (PBS solution) (pH 7.4) was added to the receiver side. The cell was heated in a water bath at 37° C. 30 minutes after starting heating, 1.0 g of a hydrogel, having been heated to 37° C., was applied to the donor side using a needleless syringe. The receiver solution was collected in 1 mL portions at specific time intervals. To the receiver side, the PBS solution was added in 1 mL portions to make up for the collected portions.
(§2) The receiver solution thus collected was subjected to high performance liquid chromatography (HPLC) and the amount of permeated paroxetine was calculated.
The nature of data set [2]: Skin permeability test: effect of promoting transdermal absorption of antipyrine (vertical diffusion cell). The note with it: hydrogel with 2 mass % antipyrine and 2 mass % test sample; hairless mouse skin; receiver PBS pH 7.4; 37° C.; n = 5.
Method: as §1, §2
The nature of data set [3]: Skin permeability test: effect of promoting transdermal absorption of paroxetine (vertical diffusion cell). The following applies: hydrogel with 1 mass % paroxetine and 2 mass % test sample; hairless mouse skin; receiver PBS pH 7.4; 37° C.; n = 5. It is filed as in vitro ADME. The text has this:
As a control, purified water was used as a substitute for the test samples.
Device: Elite LaChrom System (manufactured by Hitachi Ltd.)
Column: YMS-Pack ODS-A 4.6 mm×150 mm (manufactured by YMC Co., Ltd.)
Eluent: phosphate buffer (pH 3.5)/acetonitrile=35/65 (V/V)
Measurement wavelength: 235 nm

As for `CC1CCC(C(C)C)C(OCCO)C1` (centres unmarked) [CA5, 2-(menthoxy)ethanol], in data set [1], the “Flux of antipyrine (transdermal absorption amount per unit time and unit area)” value is recorded as 224.59 ± 19.56 μg/cm^2/h; the “Lagtime of antipyrine (transdermal absorption speed)” value (“Lagtime of antipyrine” below) came out at 1.36 ± 0.28 h.
Turning to `CC1CCC(C(C)C)C(OCC(C)(O)CO)C1` (centres unmarked) [CA1, 2-methyl-3-(menthoxy)propane-1,2-diol], in data set [1], the “Flux of antipyrine (transdermal absorption amount per unit time and unit area)” value is listed as 150.71 ± 5.46 μg/cm^2/h; the “Lagtime of antipyrine” value came to 3.20 ± 0.24 h.
In the case of `CC1CCC(C(C)C)C(O)C1` (centres unmarked) [Sample 1-Menthol, 1-menthol], in data set [2], the “Flux of antipyrine (transdermal absorption amount per unit time and unit area)” value is reported as 300.52 ± 34.42 μg/cm^2/h; the “Lagtime of antipyrine” value is listed as 0.53 ± 0.02 h. In data set [3], the “Flux of paroxetine (transdermal absorption amount per unit time and unit area)” value was 185 ± 31.1 μg/cm^2/h; the “Lagtime of paroxetine (transdermal absorption speed)” value is given as 3.84 ± 1.60 h.
